The values that follow are results of earlier work, collected in patent publication US7022677B1, “Amide derivatives as growth hormone secretagogues” (Kaken Pharmaceutical Co., Ltd., priority 1999, dated 2006).

The test system of data set [1] is growth hormone release. Particulars: control compound for pharmacophore development.
The conditions of data set [2]: human, in vivo.

Consider `CC(C)(N)CC(=O)N[C@H]1CCc2ccccc2N(Cc2ccc(-c3ccccc3-c3nn[nH]n3)cc2)C1=O` [L-692,428], for which the “growth hormone releasing activity (active/inactive)” value in data set [1] was “inactive”.

As for GHRP-6, the oral bioavailability in data set [2] is recorded as 0.3%.
